According to patent publication US20190233884A1 (University of Southern California, priority 2016, published 2019):

Tested on: patients with refractory metastatic colorectal cancer (mCRC)
Assay: PFS, OS and disease control in the training (evaluation) cohort of refractory mCRC patients receiving TAS-102 (n=52, Japan), by baseline characteristics, SNP genotype and toxicity
Format: in vivo, human
Settings: for OS HR (95% CI)‡ / PFS HR (95% CI) ‡: multivariable; for OS HR (95% CI)† / PFS HR (95% CI) † / OS HR (95% CI) / PFS HR (95% CI): univariate
Description: All patients underwent the treatment in salvage-line setting. […]
Genomic DNA was extracted from peripheral whole blood in patients of all cohorts using the QIAmp Kit (Qiagen, Valencia, Calif., USA) according to the manufacturer's protocol (www.qiagen.com). The candidate SNPs were genotyped using PCR-based direct DNA sequence analysis by ABI 3100A Capillary Genetic Analyzer and Sequencing Scanner v1.0 (Applied Biosystems). Amplification of extracted DNA was carried out using both forward and reverse primers for each gene polymorphism as shown in Table 1. […] The investigators analyzing SNPs were blinded to the clinical data of the study patients.
The primary endpoint in this study was progression-free survival (PFS), and the secondary endpoints were overall survival (OS) and disease control rate (DCR). PFS was calculated from the date of starting treatment to the first observation of disease progression or death from any cause. If a patient had no disease progression or death, PFS was censored at the date of last follow up. OS was calculated from the date of starting treatment until the date of death from any cause or the date of the last follow-up, at which point OS was censored. The disease control rate (DCR) was defined as the proportion of patients who achieved a stable disease (SD) or […] according to RECISTv1.1. Chi-square test was used to examine the difference in baseline patient characteristics among the three cohorts. Allelic distribution of all SNPs by ethnicity for deviation from Hardy-Weinberg equilibrium and the allelic frequencies of SNPs were tested using the Chi-square tests with one degree of freedom. The associations between candidate SNPs and disease control, and toxicities were examined using contingency tables and Fisher's exact test. The associations of SNPs with PFS and OS were analysed using Kaplan-Meier curves and the log-rank test. Because the true mode of inheritance of candidate SNPs was not established yet, a codominant or dominant genetic model if appropriate was considered.
All patients underwent the treatment in salvage-line setting. […] In all patients, adverse events were graded according to the Common Terminology Criteria for Adverse Events, version 4.0. […]
Genomic DNA was extracted from peripheral whole blood in patients of all cohorts using the QIAmp Kit (Qiagen, Valencia, Calif., USA) according to the manufacturer's protocol (www.qiagen.com). The candidate SNPs were tested using PCR-based direct DNA sequence analysis by ABI 3100A Capillary Genetic Analyzer and Sequencing Scanner v1.0 (Applied Biosystems). […] The investigators analyzing SNPs were blinded to the clinical data.
The primary endpoint in this study was progression-free survival (PFS), and the secondary endpoints were overall survival (OS) and disease control rate (DCR).

[1] = Che1 rs1564796 T/C and C/C grouped together
[2] = Che1 rs1564796 T/C and C/C grouped vs T/T
[3] = Evaluation cohort, Anemia grade <3
[4] = Evaluation cohort, Anemia grade ≥3
[5] = Evaluation cohort, Anemia grade ≥3 vs <3
[6] = Evaluation cohort, Anorexia grade <3
[7] = Evaluation cohort, Anorexia grade ≥3
[8] = Evaluation cohort, Anorexia grade ≥3 vs <3
[9] = Evaluation cohort, Diarrhea grade <3
[10] = Evaluation cohort, Diarrhea grade ≥3
[11] = Evaluation cohort, Diarrhea grade ≥3 vs <3
[12] = Evaluation cohort, Leukopenia grade <3
[13] = Evaluation cohort, Leukopenia grade ≥3

Q: With Trifluridine/tipiracil [TAS-102] as the substance, how does the “OS HR (95% CI)‡” value (CHEK2 rs22236142 G/C vs G/G) read?
A: 0.55 (0.19, 1.58)

Q: What about the “PFS HR (95% CI) ‡” value (CHEK2 rs22236142 G/C vs G/G) of the same substance?
A: 1.13 (0.55, 2.34)

Q: And the “OS HR (95% CI)†” value (CHEK2 rs22236142 G/C vs G/G)?
A: 0.78 (0.29, 2.11)

Q: And the “PFS HR (95% CI) †” value (CHEK2 rs22236142 G/C vs G/G)?
A: 1.43 (0.72, 2.84)

Q: What about the “OS median, months (95% CI)” value (CHEK2 rs22236142 G/G) of the same substance?
A: 8.1 (4.4, 14.8+) months

Q: And the “PFS median, months (95% CI)” value (CHEK2 rs22236142 G/G)?
A: 2.9 (1.6, 4.9) months

Q: And the “OS median, months (95% CI)” value (Che1 rs1045056 T/C)?
A: 12.4 (5.3, 12.4+) months

Q: What about the “PFS median, months (95% CI)” value (Che1 rs1045056 T/C) of the same substance?
A: 2.1 (1.2, 4.2) months

Q: What about the “OS HR (95% CI)‡” value (Che1 rs1045056 T/C vs T/T) of the same substance?
A: 0.60 (0.19, 1.85)

Q: What about the “PFS HR (95% CI) ‡” value (Che1 rs1045056 T/C vs T/T) of the same substance?
A: 1.70 (0.80, 3.64)

Q: What about the “OS HR (95% CI)†” value (Che1 rs1045056 T/C vs T/T) of the same substance?
A: 0.55 (0.18, 1.63)

Q: And the “PFS HR (95% CI) †” value (Che1 rs1045056 T/C vs T/T)?
A: 1.25 (0.61, 2.57)

Q: What about the “OS median, months (95% CI)” value (Che1 rs1045056 T/T) of the same substance?
A: 7.2 (5.4, 15.6+) months

Q: And the “PFS median, months (95% CI)” value (Che1 rs1045056 T/T)?
A: 2.9 (1.9, 3.5) months

Q: And the “OS median, months (95% CI)” value [1]?
A: 12.4 (5.3, 12.4+) months

Q: And the “PFS median, months (95% CI)” value [1]?
A: 2.1 (1.2, 4.6) months

Q: What about the “OS HR (95% CI)‡” value [2] of the same substance?
A: 0.60 (0.19, 1.87)

Q: And the “PFS HR (95% CI) ‡” value [2]?
A: 1.41 (0.65, 3.07)

Q: And the “OS HR (95% CI)†” value [2]?
A: 0.56 (0.19, 1.68)

Q: What about the “PFS HR (95% CI) †” value [2] of the same substance?
A: 1.17 (0.57, 2.40)

Q: And the “OS median, months (95% CI)” value (Che1 rs1564796 T/T)?
A: 7.2 (5.4, 15.6+) months

Q: What about the “PFS median, months (95% CI)” value (Che1 rs1564796 T/T) of the same substance?
A: 2.9 (2.0, 3.5) months

Q: What about the “OS median, months (95% CI)” value [3] of the same substance?
A: 8.3 (5.7, 15.6+) months

Q: What about the “PFS median, months (95% CI)” value [3] of the same substance?
A: 2.5 (2.0, 3.4) months

Q: And the “OS median, months (95% CI)” value [4]?
A: 6.3 (2.0, 14.8+) months

Q: What about the “PFS median, months (95% CI)” value [4] of the same substance?
A: 3.4 (1.5, 6.0+) months

Q: And the “OS HR (95% CI)” value [5]?
A: 1.87 (0.74, 4.74)

Q: And the “PFS HR (95% CI)” value [5]?
A: 0.70 (0.32, 1.53)

Q: And the “OS median, months (95% CI)” value [6]?
A: 8.1 (5.7, 12.4+) months

Q: What about the “PFS median, months (95% CI)” value [6] of the same substance?
A: 2.9 (2.1, 3.4) months

Q: And the “OS median, months (95% CI)” value [7]?
A: 8.7 (1.4, 15.6+) months

Q: What about the “PFS median, months (95% CI)” value [7] of the same substance?
A: 2.7 (0.9, 11.3) months

Q: What about the “OS HR (95% CI)” value [8] of the same substance?
A: 0.85 (0.27, 2.69)

Q: And the “PFS HR (95% CI)” value [8]?
A: 0.67 (0.27, 1.69)

Q: And the “OS median, months (95% CI)” value [9]?
A: 8.3 (6.3, 12.4) months

Q: What about the “PFS median, months (95% CI)” value [9] of the same substance?
A: 2.5 (2.0, 3.4) months

Q: And the “OS median, months (95% CI)” value [10]?
A: 5.7 (2.0, 14.8+) months

Q: What about the “PFS median, months (95% CI)” value [10] of the same substance?
A: 2.9 (1.8, 6.0+) months

Q: And the “OS HR (95% CI)” value [11]?
A: 1.49 (0.49, 4.53)

Q: What about the “PFS HR (95% CI)” value [11] of the same substance?
A: 0.88 (0.35, 2.26)

Q: And the “OS median, months (95% CI)” value [12]?
A: 8.3 (4.9, 15.6+) months

Q: What about the “PFS median, months (95% CI)” value [12] of the same substance?
A: 2.5 (1.9, 3.5) months

Q: What about the “OS median, months (95% CI)” value [13] of the same substance?
A: 8.1 (5.7, 10.7+) months

Q: What about the “PFS median, months (95% CI)” value [13] of the same substance?
A: 3.4 (1.6, 4.6) months

Q: What about the “OS HR (95% CI)” value (Evaluation cohort, Leukopenia grade ≥3 vs <3) of the same substance?
A: 0.73 (0.26, 2.01)
